Data: patent US20240417404A1, “CRYSTALLINE FORMS OF N-[4-[4-(4-MORPHOLINYL)-7H-PYRROLO[2,3-d]PYRIMIDIN-6-YL]PHENYL]-4-[[3(R)-[(1-OXO-2-PROPEN-1-YL)AMINO]-1-[sequence]]METHYL]-2-PYRIDINECARBOXAMIDE AS IRREVERSIBLE INHIBITORS OF MENIN-MLL INTERACTION” (BIOMEA FUSION, INC., priority 2023, published 2024)
In brackets after ≈: the same amount, converted by molar mass.

Legend:
[1] = Solid form stability (XRPD after storage, conversion in MeOH/water, thermal); assay type: physicochemical
Method: X-ray powder diffraction patterns were collected on a Bruker AXS C2 GADDS or Bruker AXS D8 diffractometer.
X-ray Powder Diffraction patterns were collected on a Bruker AXS C2 GADDS diffractometer using Cu Kα radiation (40 kV, 40 mA), automated XYZ stage, laser video microscope for auto-sample positioning, and a HiStar 2-dimensional area detector. X-ray optics consists of a single Göbel multilayer mirror coupled with a pinhole collimator of 0.3 mm. A weekly performance check is carried out using a certified standard NIST 1976 Corundum (flat plate). The beam divergence (i.e., the effective size of the X-ray beam on the sample) was approximately 4 mm. A θ-θ continuous scan mode was employed with a sample—detector distance of 20 cm which gives an effective 2θ range of 3.2°-29.7°. Typically the sample would be exposed to the X-ray beam for 120 seconds. The software used for data collection was GADDS for WNT 4.1.16 and the data were analyzed and presented using Diffrac Plus EVA v11.0.0.2 or v13.0.0.2.
X-ray Powder Diffraction patterns were collected on a Bruker D8 diffractometer using Cu Kα radiation (40 kV, 40 mA), θ-2θ goniometer, and divergence of V4 and receiving slits, a Ge monochromator and a Lynxeye detector. The instrument is performance checked using a certified Corundum standard (NIST 1976). The software used for data collection was Diffrac Plus XRD Commander v2.5.0 and the data were analysed and presented using Diffrac Plus EVA v11.0.0.2 or v13.0.0.2. Samples were run under ambient conditions as flat plate specimens using powder as received. The sample was gently packed into a cavity cut into a polished, zero-background (510) silicon wafer. The sample was rotated via its own plane during analysis. The details of the data collection are: • Angular range: 2 to 42 02θ • Step size: 0.05 02θ • Collection time: 0.5 s/step

[2] = Hygroscopicity (water absorption versus relative humidity); assay type: physicochemical; settings: from 40% RH to 70% RH at 25° C.
[3] = physchem; settings: pH 4.5, aqueous buffer, observed aqueous solubility
[4] = Solubility of Compound A crystalline forms in aqueous buffers and biorelevant media; settings: aqueous buffer, solubility, water, pH 4.5 acetate buffer, pH 6.8 phosphate buffer, pH 5.0 FeSSIF-v1 and pH 6.5 FaSSIF-v1

Structure (SMILES): C=CC(=O)N[C@@H]1CCCN(Cc2ccnc(C(=O)Nc3ccc(-c4cc5c(N6CCOCC6)ncnc5[nH]4)cc3)c2)C1 [Form K, N-[4-[4-(4-morpholinyl)-7H-pyrrolo[2,3-d]pyrimidin-6-yl]phenyl]-4-[[3(R)-[(1-oxo-2-propen-1-yl)amino]-1-piperidinyl]methyl]-2-pyridinecarboxamide]
- XRPD pattern post storage ([1]; closed container at 60° C. and 75% RH for at least a week): substantially the same X-ray powder diffraction (XRPD) pattern
- XRPD pattern post storage ([1]; open container at 25° C. and 92% RH for at least a week): substantially the same X-ray powder diffraction (XRPD) pattern
- XRPD pattern post storage ([1]; open container at 40° C. and 75% RH for at least a week): substantially the same X-ray powder diffraction (XRPD) pattern
- Stability ([1]; polymorph stability, K converted into Pattern D in MeOH/water mixture (water activity from 0 to 1), listed as K): Low-Converted into
- Stability (thermal) ([1]; thermal): But thermally very stable
- observed hygroscopicity and absorption of water [2]: about 2.1%
- solubility [3]: ~4 µg/mL (≈ 7.06 µM)
- solubility [4]: < 35 µg/mL
